This data set in a line: Plasma pharmacokinetics, chronic study (150 mg/Kg single vs daily for 2 weeks). Particulars: for AUC(0-t): plasma, po, 150 mg/kg; for relative percent amount of metabolite versus 4-HPR in plasma: after single and repeated treatment. Type of data set: in vivo, CD1 female mice. The method, then: The experiments were performed in CD1 female mice, 7 weeks of age, (body weight 25 ± 2 g) obtained from Envigo RMS SrL (Udine, Italy). They were maintained under specific-pathogen-free conditions with constant temperature and humidity, according to institutional guidelines regularly checked by a certified veterinarian. Animal experimentation was conducted in conformance with the following laws, regulations, and policies governing the care and use of laboratory animals: Italian Governing Law (D. l. 26/2014; Authorization n.19/2008-A issued March 6, 2008 by the Ministry of Health). Mario Negri Institutional Regulations and Policies providing internal authorizations for persons conducting animal experiments (Quality Management System Certificate –UNI EN ISO 9001:2008 – Reg. N 86121). The experimental protocol was reviewed by the Mario Negri Institute Ethical Committee and approved by the Italian Ministry of Health (Aut. Min. No 489/2016-Pr).
The pharmacokinetics of oral Bio-nFeR was investigated in comparison to that of the reference formulation NCI-FeR, after single administration of multiple doses and after chronic administrations, daily for 2 weeks or bi-daily for 1 week. Bio-nFeR was reconstituted at 20 mg/mL fenretinide to allow the administration of 200 mg/Kg fenretinide that corresponded to the highest dose. The doses of 100, 50 and 10 mg/Kg were administered by using serial dilution of the 20 mg/mL solution.
NCI-FeR prepared, as per the NCI instructions, at 11.6% w:w fenretinide:internal capsule components, was diluted with corn oil to obtain the treatment solutions at the concentrations of 20, 15 and 10 mg/mL, corresponding to the administered doses of 200, 150 and 100 mg/Kg respectively.
The oral pharmacokinetics of Bio-nFeR were investigated in four independent groups of 24 mice, randomized to receive different treatment with the following fenretinide equivalent doses: 10, 50, 100 and 200 mg/Kg. The drug was administered by oral gavage and after treatment, blood samples were taken at 15 and 30 min and at 1, 2, 4, 8/10, 24 and 48 h and collected in heparinized tubes from the retro-orbital plexus of the mice under isoflurane anesthesia. Mice were then sacrificed by cervical dislocation and liver, kidney and brain were removed and immediately frozen in dry-ice for future determination. To obtain plasma, blood was centrifuged at 4000 rpm for 10 min at 4 °C. To evaluate fenretinide and metabolites excretion, urine and faeces were collected over a 0–24 h and 24–48 h periods. The collection was performed in three mice per group of treatment, individually housed into metabolic cages for urine and faeces collection. All the biological samples were stored at − 20 °C until analysis. To compare the absorption of Bio-nFeR to NCI-FeR and to study the bioavailability, another independent groups of 24 mice were randomized to receive an oral dose of 200 mg/Kg of NCI-FeR. Blood samples were taken at the time reported above. Twenty-four hours fractions of urine and faeces were collected in three mice per group of treatment. Plasma and the other biological specimens were stored at − 20 °C until analysis. Chronic study: the oral pharmacokinetic of Bio-nFeR in comparison with NCI-FeR were also investigated after chronic administrations. Mice were divided in three independent groups, randomized to receive a single treatment of 150 mg/Kg or different repeated treatments of 150 mg/Kg, daily for 2 weeks (12 days on and 2 days off), or 100 mg/Kg bi-daily for 1 week (5 days on 2 days off). Bio-nFeR and NCI-FeR were administered by oral gavage, collecting blood samples at 0.5, 1, 2, 4, 8/10 and 24 h, the day of the single treatment and at 0, 1, 2, 4, 8/10, 24 and 48 h after the last dose of both the chronic treatments. The procedures of blood collection, plasma preparation, sacrifice of mice and storing of samples were as reported in acute study. […]

[1] abbreviates: female, CD1, mouse, plasma analyte, oral Bio-nFeR 150 mg/kg daily, 2 week.
[2] abbreviates: female, CD1, mouse, plasma analyte, oral Bio-nFeR 150 mg/kg, Day 1.
Where [3] appears, read: plasma analyte, oral Bio-nFeR 150 mg/kg daily, 2 week.
The mark [4] stands for this setting: plasma analyte, oral Bio-nFeR 150 mg/kg, Day 1.

Here are results for three compounds from PMC6706930, “A novel oral micellar fenretinide formulation with enhanced bioavailability and antitumour activity against multiple tumours from cancer stem cells” (Journal of Experimental & Clinical Cancer Research : CR, 2019).

Read-outs that look alike come from different tables or passages of the source.

By AUC(0-t) is commonly meant the area under the concentration-time curve up to a stated or last time point. A high value points to high exposure. For orientation: Cmax means the highest concentration seen after dosing. In general, Tmax refers to the time at which the peak concentration occurs.

`CC1=C(/C=C/C(C)=C/C=C/C(C)=C/C(=O)Nc2ccc(O)cc2)C(C)(C)CCC1` [4-HPR, 4-hydroxy (phenyl)retinamide, reference compound]: under setting [1], the AUC(0-t) turned out to be 85100 ng·h/mL, the highest level (Cmax at 2 weeks) was 6810 ng/mL and the time of peak concentration (Tmax) at 2 weeks came out at 4 h. Also, under setting [2], the AUC(0-t) amounted to 56900 ng·h/mL and the Cmax came to 6350 ng/mL. For the same compound, where the note is “female, CD1, mouse, plasma analyte, oral Bio-nFeR 150 mg/kg, Day 1, read-out: Tmax”, the Tmax was found to be 20 h. The compound also had an HL under setting [3] of 5.7 h. The compound further returned an HL under setting [4] of 5.3 h.
Take `CC1=C(/C=C/C(C)=C/C=C/C(C)=C/C(=O)Nc2ccc(O)cc2)C(C)(C)CCC1=O` [4-oxo-4-HPR]: the “relative percent amount of metabolite versus 4-HPR in plasma” value is “about 50%”. Moreover, under setting [3], the “AUC 0-last” value was 54434.2 ng·h/mL, the “Cmax ±SD” value turned out to be 4282.6 ng/mL, the HL was found to be 4.7 h and the Tmax stood at 4 h. Under setting [4], the “AUC 0-last” value stood at 33726.1 ng·h/mL, the “Cmax ±SD” value was determined as 2979.4 ng/mL and the HL is 3.9 h.
Take `COc1ccc(NC(=O)\C=C(C)/C=C/C=C(C)\C=C\C2=C(C)CCCC2(C)C)cc1` [MPR]: the “relative percent amount of metabolite versus 4-HPR in plasma” value is listed as around 15%. For the same compound, under setting [3], the “AUC 0-last” value amounted to 22086.1 ng·h/mL, the “Cmax ±SD” value was 1147.9 ng/mL, the HL was found to be 11.2 h and the Tmax was determined as 4 h. Also, under setting [4], the “AUC 0-last” value came to 10435.4 ng·h/mL, the “Cmax ±SD” value is 798.0 ng/mL, the HL amounted to 8.6 h and the Tmax stood at 4 h.
